From patent publication US8313763B2, “Sustained delivery formulations of rapamycin compounds” (Tolmar Therapeutics, Inc., priority 2004, dated 2012)

Experiments:
[1] = test system: human peripheral blood T cells; assay: IFNgamma release from phytohemagglutanin-stimulated T cells; format: cell-based; details: T-cell, T cells stimulated with phytohemagglutanin
Protocol: (§1) Targeted tissue concentrations were estimated from in vitro experiments assessing the inhibitory effects of rapamycin on endothelial cell proliferation and cytokine release from immune cells. Human umbilical endothelial cells were activated with Vascular Endothelial Growth Factor (VEGF) and incubated with various concentrations of rapamycin. Cell proliferation was evaluated by quantifying [3}H-thymidine incorporation after 48 hours. […] The IC50 for the release of TNFalpha from Lipopolysaccharide and IFNgamma treated THP-1 cells (monocytic cell line) was ˜1 nM and the IC50 for the release of IFNgamma from human peripheral blood T cells stimulated with phytohemagglutanin was ˜2 nM.

[2] = test system: Ser235/236 phosphorylation of S6 ribosomal protein (downstream target of mTOR); assay: Pharmacodynamic evaluation: S6 phosphorylation in chorioretinal tissues by western blot; format: in vivo, rat
Protocol: (§2) Intravitreal injection was performed immediately after laser photocoagulation. Briefly, three days prior to the injection, 0.3% Ciloxan ointment was applied to the eye once daily. At the time of injection, the eye pocket was irrigated and the conjunctiva swabbed with 1.0% Betadine solution. A 30-gauge needle connected to a 10-μL Hamilton syringe that contained 5 μL carboxymethylcellulose (CMC)-based Rapamycin suspension (0.5, 5, 10 or 40 mg/mL) or CMC vehicle alone was inserted 1 mm posterior to the corneoscleral limbus. The injection began when the bevel of the needle faced down and reached the vitreous about 1-2 mm in depth with the visual aid of a dissecting microscope. After injection, topical 0.3% Ciloxan ointment was applied to the eye once daily for 2 days.
Upon euthanasia of the animal, the eyes were cut along the equator, separating the anterior and posterior segments. The vitreous was removed and the remaining back of eye (with intact retina, choroid and sclera) was placed in a labeled Nalgene Cryotube, immediately immersed in liquid nitrogen, and stored at −80° C. until ready to use. Upon lysis, tubes containing tissue were brought to room temperature to thaw. […] Protein concentration of each sample was determined using the Pierce BCA Protein Determination Kit (Pierce, CAT #: 23225) and BSA as a standard. Samples were analyzed by SDS-PAGE, followed by western blotting. […] Bound antibodies were detected using ECL or ECL plus Western Blotting Reagents. Densitometric evaluation was performed on blots scanned by Bio-Rad Multi-Analyst Software, and analyzed in MS Excel and GraphPad Prism.
Rapamycin inhibits mTOR activity, which then down-regulates Ser235/236 phosphorylation of the downstream target of mTOR, the S6 ribosomal protein. In order to evaluate the pharmacodynamic response of intravitreally administered rapamycin in the eye, the serine phosphorylation of S6 protein extracted from chorioretinal tissues was analyzed by western blot, and standardized by the total amount of S6 protein. […]

[3] = test system: choroidal neovascularization (CNV); assay: Laser-induced CNV model, fluorescein angiography evaluation of leaky CNV; format: in vivo, Long Evans rats; details: for incidence of developing leaky CNV 2 weeks after laser photocoagulation: vehicle 83%
Protocol: (§3) Thermal laser infrared light (diode laser 810 nm) at 200 mW for 0.075 seconds was delivered to the fundus of Long Evans rats using a slit lamp and a slit lamp adaptor. A total of 6 lesions with 75 μm diameter were placed in a circular pattern surrounding the optic disc on the posterior pole.
as §2
FA was performed on the 14th day after intravitreal injection of Rapamycin. Briefly, a 25-gauge butterfly catheter was placed in the tail vein on an anesthetized animal and a Heparin-Lock solution (0.50 mL of 10,000 IU/mL Heparin Sodium with 0.95 mL 0.9% Saline) was used to fill the catheter line to maintain intravenous access. A dose of 10 mg/kg of Diofluor 10% (Fluorescein Sodium 10%) was delivered through the tail vein, followed by a flush of sterile saline to ensure full delivery of Diofluor 10%. An infusion pump (Becton-Dickinson) connected to a 60 cc syringe was used to infuse the Diofluor 10% at a constant rate of 6 mL/min (8.4-13.2 pounds per square inches) to allow for consistency in the synchronization of the fluorescein bolus injection and the angiogram acquisition. Photographs were taken with a fluorescence fundus camera at 1-10, 30, 60, 90, 180, and 300 sec after Diofluor 10% administration. The leakiness of CNV was assessed by two independent readers masked to the treatment.

[4] = test system: Human umbilical endothelial cells; assay: VEGF-activated endothelial cell proliferation, [3H]-thymidine incorporation; format: cell-based; details: [3H]-thymidine incorporation after 48 hours
Protocol: as §1

[5] = test system: THP-1 cells (monocytic cell line); assay: TNFalpha release from Lipopolysaccharide and IFNgamma treated THP-1 cells; format: cell-based; details: Homo sapiens
Protocol: as §1

[6] = test system: choroidal neovascularization (CNV); assay: Laser-induced CNV model, histological evaluation (CNV area, CD31-positive cell count); format: in vivo, Long Evans rats
Protocol: as §3
as §2, with “A 30-gauge needle connected to a 10-μL Hamilton syringe that contained 5 μL carboxymethylcellulose (CMC)-based Rapamycin suspension (0.5, 5, 10 or 40 mg/mL) or CMC vehicle alone was inserted 1 mm posterior to the corneoscleral limbus.” left out
Eyes were enucleated and chorioretinal tissues that contained the CNV lesions prepared and fixed for about 18 hours in formic acid alcohol, and then replaced with 70% alcohol until the specimen was processed to wax by a standard method. Slides were stained with mouse anti rat CD31 (Chemicon, UK) by a standard immunohistochemistry protocol. This briefly consisted of removal of endogenous peroxidase enzymes with methanol and hydrogen peroxide, primary antibody as above, and the secondary donkey antibody anti mouse conjugated to biotin. Streptavidin ABC and Vector VIP substrate (Vector labs, Burlingame Calif.) were further added. Haematoxylin was used as a counterstain. Representative images before and after the center of each CNV lesion were taken using the 20× objective of an Olympus BX61 microscope fitted with a Spot RT colour camera (Diagnostic instruments, MI USA). Each image was applied to the standard image analysis macro in the software Image pro to identify the mean of lesion area for each CNV and the mean of CD31 positive cell counts (i.e. endothelial cells) within the CNV lesion area. All measurements were generated by two independent readers masked to the treatments. The data was analyzed in Excel and GraphPad Prism. The 80% correlation found between readers was deemed acceptable.

For CO[C@H]1C[C@@H]2CC[C@@H](C)[C@@](O)(O2)C(=O)C(=O)N2CCCC[C@H]2C(=O)O[C@H]([C@H](C)C[C@@H]2CC[C@@H](O)[C@H](OC)C2)CC(=O)[C@H](C)/C=C(\C)[C@@H](O)[C@@H](OC)C(=O)[C@H](C)C[C@H](C)/C=C/C=C/C=C/1C [rapamycin, Rapamycin], the IC50 [1] was about 2 nM, the “level of phosphorylated Ser235/236 on S6 ribosomal protein, standardized by total S6” value ([2]; chorioretinal tissues, day 1, 3 and 7 post-dosing, vs untreated or vehicle-injected eyes, FIG. 10) was “significantly reduced” and the “onset of inhibitory effect on S6 phosphorylation” value ([2]; intravitreal, rat) was at most 24 h. For the same compound, the “duration of inhibitory effect on S6 phosphorylation” value ([2]; post-dosing, longest follow-up timepoint) was 7 days, the “response in the rat model of laser-induced CNV” value ([3]; 5 μg intravitreally injected) was “nearly a complete response” and the “incidence of developing leaky CNV 2 weeks after laser photocoagulation” value (“incidence … after laser photocoagulation” for short) ([3]; single intravitreal injection of 0.5 μg rapamycin in CMC) was 65%. The “incidence … after laser photocoagulation” value ([3]; single intravitreal injection of 5 μg rapamycin in CMC) was 5%, the “incidence … after laser photocoagulation” value ([3]; single intravitreal injection of 50 μg rapamycin in CMC) was 2% and the IC50 [4] was 69 nM. For the same compound, the IC50 [5] was about 1 nM, the “reduction in CNV area compared to the vehicle group” value (“reduction in CNV area” for short) ([6]; 0.5 μg intravitreal) was 15% and the “reduction in CNV area” value ([6]; 5 μg intravitreal) was 55%. For the same compound, the “reduction in CNV area” value ([6]; 50 μg intravitreal) was 50% and the “overall reduction in the number of endothelial cells within the CNV area compared to the vehicle group” value ([6]; 50 μg, 5 μg and 0.5 μg intravitreal, overall) was 50-60%.

CC1(C)O[C@@H]2C[C@H]3[C@@H]4CCC5=CC(=O)C=C[C@]5(C)[C@@]4(F)[C@@H](O)C[C@]3(C)[C@]2(C(=O)CO)O1 [triamcinolone acetonide] was tested, and the “incidence of leaky CNV at the 14-day follow-up” value ([3]; intravitreal dose of 200 μg, positive control) was 10%, the “inhibition of CNV area” value ([6]; TA, intravitreal 200 μg) was “approximately 50%” and the “inhibition of endothelial cell count” value ([6]; TA, intravitreal 200 μg) was about 60%.
